Reference: patent publication US6525017B1, “Using glutathiane to protect neurons from injury” (The Children's Medical Center Corporation, priority 1989, dated 2003)

Tests used:
[1] = test system: NMDA receptor; assay: NMDA-induced responses recorded in intact chick retina (eyecup, optic nerve DC potential); assay type: cell-based
Description: Eyecups were obtained from 2-to 5-day-old chicks and continuously superfused at 20-25° C. at a rate of 8 ml/min with Tyrodes solution (130 mM NaCl, 3 mM KCl, 17 mM dextrose, 20 mM NaHCO3, 0.01% w/v phenol red; bubbled with a gas mixture of 95% O2 and 5% CO2) containing 5 mM MgCl2 to reduce synaptic activity. […] Traces were triggered by the opening of two solenoid valves that shunted approximately 200 μl of agonist (1, 1-dimethyl-4-phenyl-piperazinium iodide, DMPP or NMDA) into the perfusion line, Agonists reached the preparation approximately 7s later. […] Some experiments were performed in the presence of 10 μg/ml catalase and 1 μg/ml superoxide dismutase. Antagonists, reducing agents, or oxidizing agents were introduced directly via the perfusate.

[2] = test system: nicotinic receptor; assay: Nicotinic receptor function in intact chick retina; assay type: cell-based
Description: Eyecups were obtained from 2-to 5-day-old chicks and continuously superfused at 20-25° C. at a rate of 8 ml/min with Tyrodes solution (130 mM NaCl, 3 mM KCl, 17 mM dextrose, 20 mM NaHCO3, 0.01% w/v phenol red; bubbled with a gas mixture of 95% O2 and 5% CO2) containing 5 mM MgCl2 to reduce synaptic activity. […] Traces were triggered by the opening of two solenoid valves that shunted approximately 200 μl of agonist (1, 1-dimethyl-4-phenyl-piperazinium iodide, DMPP or NMDA) into the perfusion line, Agonists reached the preparation approximately 7s later. The resulting responses originated, at least in part, in the retinal ganglion cells. Some experiments were performed in the presence of 10 μg/ml catalase and 1 μg/ml superoxide dismutase. Antagonists, reducing agents, or oxidizing agents were introduced directly via the perfusate.
The action of DTT lasted for tens of minutes after the reducing agent was removed; any small decrement in the potentiation could be reversed with additional DTT treatment. The function of the nicotinic receptors was restored upon oxidation with 0.1-1.0 mM DTNB (applied for 5 min). […] The reduction and oxidation effects could be alternated repeatedly for as long as the preparation remained stable, which was often more than 9 hr.

Structure (SMILES)	response to NMDA, % of control (potentiation) ([1]; 100 μM NMDA, DTT 1-2 mM applied for 10-25 min, mean ± spread)	response to NMDA, % of control, range ([1]; 100 μM NMDA, DTT 1-2 mM applied for 10-25 min, range)	nicotinic receptor function after reduction ([2]; DTT 1-2 mM applied for 10-25 min)	decrease of NMDA response following oxidation ([1]; 0.1-1.0 mM DTNB applied for 5 min, compared with controls, mean ± spread)	decrease of NMDA response following oxidation, range ([1]; 0.1-1.0 mM DTNB applied for 5 min, range)	nicotinic receptor function upon oxidation ([2]; 0.1-1.0 mM DTNB applied for 5 min, after DTT)
O[C@@H](CS)[C@@H](O)CS [DTT, dithothreitol]	530%±280%	200%-860%	blocks nicotinic receptor function	–	–	–
O=C(O)c1cc(SSc2ccc([N+](=O)[O-])c(C(=O)O)c2)ccc1[N+](=O)[O-] [DTNB, 5′-5′-dithiobis-2-nitrobenzoic acid]	–	–	–	81.6%±24.1%	43%-100%	restored
